Measurements published in ChEMBL document CHEMBL1201862, “PubChem BioAssay data set” (2004).
Active and inactive are the calls of the source.

Key:
Fatty acid synthase [1] = molecular target: T1, Fatty acid synthase (Homo sapiens, UniProt P49327); test: inhibition of human FAS-TE enzyme activity – biochemical, kinetic fluorescence intensity, dose response (AID 624326); format: functional;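 note: rate of fluorescence rise from hydrolysis of a fluorogenic O-methyl fluorescein ester substrate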
[2] = A High Throughput Confirmatory Assay used to Identify Novel Compounds that Inhibit Mycobacterium Tuberculosis in the absence of Glycerol.; format: functional
Fatty acid synthase [3] = molecular target: T1, Fatty acid synthase; test: inhibition of human FAS-TE enzyme activity – biochemical, endpoint fluorescence intensity, uHTS hits, dose response (AID 624327); format: functional;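 note: fluorescence from hydrolysis of an O-methyl fluorescein acyl ester substrate by the enzyme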
[4] = microbe, parasite or virus in culture; format: functional; settings: Mycobacterium tuberculosis
Bcl-2-related protein A1 [5] = molecular target: T2, Bcl-2-related protein A1 (Mus musculus, UniProt Q07440); test: small-molecule antagonists of Bfl-1/BH3 interaction – biochemical, TR-FRET, mouse Bfl-1, confirmation (AID 621);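 note: TR-FRET binding of GST-Bfl-1 to FITC-labelled Bid peptide via terbium antibody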
T2 sequence (Q07440 whole entry): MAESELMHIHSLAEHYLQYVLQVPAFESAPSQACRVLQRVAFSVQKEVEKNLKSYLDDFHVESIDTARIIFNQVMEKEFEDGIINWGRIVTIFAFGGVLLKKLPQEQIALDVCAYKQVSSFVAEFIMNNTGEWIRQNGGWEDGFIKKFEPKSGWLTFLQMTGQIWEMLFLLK

Bcl-2-related protein A1 [6] = molecular target: T2, Bcl-2-related protein A1; test: Bfl-1 binding inhibitors, SAR follow-up, biochemical, fluorescence polarization (AID 1070)
Procathepsin L = Procathepsin L (Homo sapiens, UniProt P07711)
Chain of Procathepsin L (P07711 whole entry): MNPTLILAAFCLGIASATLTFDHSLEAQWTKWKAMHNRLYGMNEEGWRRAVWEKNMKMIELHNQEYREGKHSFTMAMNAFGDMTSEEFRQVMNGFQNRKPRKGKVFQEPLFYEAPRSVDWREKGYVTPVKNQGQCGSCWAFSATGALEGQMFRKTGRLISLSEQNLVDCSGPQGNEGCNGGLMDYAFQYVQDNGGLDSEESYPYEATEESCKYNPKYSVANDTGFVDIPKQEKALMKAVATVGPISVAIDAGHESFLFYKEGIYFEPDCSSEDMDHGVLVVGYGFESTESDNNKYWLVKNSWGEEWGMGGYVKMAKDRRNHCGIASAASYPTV

Aspartyl aminopeptidase = molecular target: T3, Aspartyl aminopeptidase (Plasmodium falciparum 3D7, UniProt Q8I2J3)
T3 sequence (Q8I2J3 whole entry): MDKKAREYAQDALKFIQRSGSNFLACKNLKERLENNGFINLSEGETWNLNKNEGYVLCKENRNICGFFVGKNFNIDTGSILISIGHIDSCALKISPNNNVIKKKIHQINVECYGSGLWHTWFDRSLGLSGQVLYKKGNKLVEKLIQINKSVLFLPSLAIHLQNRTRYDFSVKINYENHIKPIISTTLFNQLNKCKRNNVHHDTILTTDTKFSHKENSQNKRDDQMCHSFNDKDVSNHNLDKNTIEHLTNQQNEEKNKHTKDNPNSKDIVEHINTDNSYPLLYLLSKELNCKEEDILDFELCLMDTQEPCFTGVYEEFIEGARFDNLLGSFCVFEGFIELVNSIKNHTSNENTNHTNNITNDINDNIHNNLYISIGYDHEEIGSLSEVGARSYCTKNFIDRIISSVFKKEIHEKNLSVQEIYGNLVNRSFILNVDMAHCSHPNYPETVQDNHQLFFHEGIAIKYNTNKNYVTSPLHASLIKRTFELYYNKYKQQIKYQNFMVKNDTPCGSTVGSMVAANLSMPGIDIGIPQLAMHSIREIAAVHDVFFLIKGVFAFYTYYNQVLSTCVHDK

[7] = molecular target: Peroxisome proliferator-activated receptor gamma/Nuclear receptor corepressor 2 (Homo sapiens, UniProt P37231+Q9Y618); format: functional
[8] = molecular target: Photoreceptor-specific nuclear receptor (Homo sapiens, UniProt Q9Y5X4); format: functional;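 note: potency for compounds that break the NR2E3 corepressor complex and count as activators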
Chain of Photoreceptor-specific nuclear receptor (Q9Y5X4 whole entry): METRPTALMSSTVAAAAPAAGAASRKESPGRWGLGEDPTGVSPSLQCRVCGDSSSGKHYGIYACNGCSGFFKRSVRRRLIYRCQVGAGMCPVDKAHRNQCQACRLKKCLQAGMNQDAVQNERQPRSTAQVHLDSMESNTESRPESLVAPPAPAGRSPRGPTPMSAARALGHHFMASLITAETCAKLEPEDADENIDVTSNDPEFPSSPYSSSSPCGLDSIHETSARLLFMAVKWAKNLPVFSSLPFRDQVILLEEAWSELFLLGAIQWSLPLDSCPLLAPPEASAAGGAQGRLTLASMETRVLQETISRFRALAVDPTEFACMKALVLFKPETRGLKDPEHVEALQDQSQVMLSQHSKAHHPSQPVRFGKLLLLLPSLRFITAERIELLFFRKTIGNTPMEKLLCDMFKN

[9] = molecular target: Lysosomal acid glucosylceramidase (Homo sapiens, UniProt P04062); test: Dose response cell-based high throughput screening assay to identify enhancers of beta-glucosidase activity. [Related pubchem assays: 784 ]; format: functional
[10] = Luminescence-based dose response cell-based high throughput screening assay for cytotoxic compounds using the IEC-6 intestinal epithelial cell line. [Related pubchem assays: 1858 (Summary AID.), 1825 (Counterscreen.), 1907 (Confirmation screen.)]; format: functional
Cytochrome P450 3A4 = Cytochrome P450 3A4 (Homo sapiens, UniProt P08684); settings: Potency;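 note: confirmatory qHTS run detecting inhibitors and substrates of CYP3A4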
Chain of Cytochrome P450 3A4 (P08684 whole entry): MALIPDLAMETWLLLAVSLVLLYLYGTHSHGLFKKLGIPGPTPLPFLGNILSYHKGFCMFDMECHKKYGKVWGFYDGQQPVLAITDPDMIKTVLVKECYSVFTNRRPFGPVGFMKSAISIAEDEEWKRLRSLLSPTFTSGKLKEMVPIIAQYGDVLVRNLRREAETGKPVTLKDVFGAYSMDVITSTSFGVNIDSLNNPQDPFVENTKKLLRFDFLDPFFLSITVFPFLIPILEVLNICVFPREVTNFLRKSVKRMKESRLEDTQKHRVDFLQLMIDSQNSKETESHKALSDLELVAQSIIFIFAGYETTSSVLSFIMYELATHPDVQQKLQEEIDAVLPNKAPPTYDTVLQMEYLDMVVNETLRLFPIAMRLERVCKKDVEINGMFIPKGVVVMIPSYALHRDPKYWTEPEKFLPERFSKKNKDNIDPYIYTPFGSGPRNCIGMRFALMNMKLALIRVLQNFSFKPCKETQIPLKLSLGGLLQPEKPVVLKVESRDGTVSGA

Cytochrome P450 2C9 = Cytochrome P450 2C9 (Homo sapiens, UniProt P11712); settings: Potency
Chain of Cytochrome P450 2C9 (P11712 whole entry): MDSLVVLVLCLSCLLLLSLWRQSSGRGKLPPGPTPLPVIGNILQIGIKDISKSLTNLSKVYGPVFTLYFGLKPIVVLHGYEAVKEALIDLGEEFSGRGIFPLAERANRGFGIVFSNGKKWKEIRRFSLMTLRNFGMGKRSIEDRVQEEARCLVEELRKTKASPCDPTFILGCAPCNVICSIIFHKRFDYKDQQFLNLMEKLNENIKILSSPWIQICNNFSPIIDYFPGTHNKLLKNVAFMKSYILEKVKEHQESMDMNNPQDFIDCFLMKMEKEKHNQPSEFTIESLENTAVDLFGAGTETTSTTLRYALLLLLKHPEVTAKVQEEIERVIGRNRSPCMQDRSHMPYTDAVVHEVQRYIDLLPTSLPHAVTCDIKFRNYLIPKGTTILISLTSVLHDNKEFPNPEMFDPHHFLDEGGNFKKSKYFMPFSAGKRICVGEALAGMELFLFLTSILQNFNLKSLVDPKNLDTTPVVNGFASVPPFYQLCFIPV

Staphylococcus aureus = test: Inhibitors of Bacterial Quorum Sensing Structure Activity Relationship (SAR) Analysis: Dose Response Assay. [Related pubchem assays: 700, 527 ]; format: functional, organism-based
[11] = molecular target: Melanin-concentrating hormone receptor 1 (Homo sapiens, UniProt Q99705); test: Fluorescence-based counterscreen for antagonists of the G-protein coupled receptor 7 (GPR7): cell-based high throughput dose response assay to identify antagonists of the melanin-concentrating hormone receptor 1 (MCHR1).; format: functional
Chain of Melanin-concentrating hormone receptor 1 (Q99705 whole entry): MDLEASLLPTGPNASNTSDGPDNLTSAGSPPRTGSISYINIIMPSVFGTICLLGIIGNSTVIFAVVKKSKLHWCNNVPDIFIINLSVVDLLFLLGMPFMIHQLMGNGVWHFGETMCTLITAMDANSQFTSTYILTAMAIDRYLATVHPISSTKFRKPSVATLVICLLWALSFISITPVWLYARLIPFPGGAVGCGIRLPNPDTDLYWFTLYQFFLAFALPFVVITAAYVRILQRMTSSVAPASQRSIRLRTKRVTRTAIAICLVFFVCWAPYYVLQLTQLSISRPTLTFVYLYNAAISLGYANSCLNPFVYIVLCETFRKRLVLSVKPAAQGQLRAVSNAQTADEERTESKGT

[12] = viability of uninfected HEp-2 cells – cell-based, HTS, cytotoxicity control for RSV inhibitor project, dose response (AID 2410); format: functional; settings: human respiratory syncytial virus

T1 sequence (P49327 whole entry): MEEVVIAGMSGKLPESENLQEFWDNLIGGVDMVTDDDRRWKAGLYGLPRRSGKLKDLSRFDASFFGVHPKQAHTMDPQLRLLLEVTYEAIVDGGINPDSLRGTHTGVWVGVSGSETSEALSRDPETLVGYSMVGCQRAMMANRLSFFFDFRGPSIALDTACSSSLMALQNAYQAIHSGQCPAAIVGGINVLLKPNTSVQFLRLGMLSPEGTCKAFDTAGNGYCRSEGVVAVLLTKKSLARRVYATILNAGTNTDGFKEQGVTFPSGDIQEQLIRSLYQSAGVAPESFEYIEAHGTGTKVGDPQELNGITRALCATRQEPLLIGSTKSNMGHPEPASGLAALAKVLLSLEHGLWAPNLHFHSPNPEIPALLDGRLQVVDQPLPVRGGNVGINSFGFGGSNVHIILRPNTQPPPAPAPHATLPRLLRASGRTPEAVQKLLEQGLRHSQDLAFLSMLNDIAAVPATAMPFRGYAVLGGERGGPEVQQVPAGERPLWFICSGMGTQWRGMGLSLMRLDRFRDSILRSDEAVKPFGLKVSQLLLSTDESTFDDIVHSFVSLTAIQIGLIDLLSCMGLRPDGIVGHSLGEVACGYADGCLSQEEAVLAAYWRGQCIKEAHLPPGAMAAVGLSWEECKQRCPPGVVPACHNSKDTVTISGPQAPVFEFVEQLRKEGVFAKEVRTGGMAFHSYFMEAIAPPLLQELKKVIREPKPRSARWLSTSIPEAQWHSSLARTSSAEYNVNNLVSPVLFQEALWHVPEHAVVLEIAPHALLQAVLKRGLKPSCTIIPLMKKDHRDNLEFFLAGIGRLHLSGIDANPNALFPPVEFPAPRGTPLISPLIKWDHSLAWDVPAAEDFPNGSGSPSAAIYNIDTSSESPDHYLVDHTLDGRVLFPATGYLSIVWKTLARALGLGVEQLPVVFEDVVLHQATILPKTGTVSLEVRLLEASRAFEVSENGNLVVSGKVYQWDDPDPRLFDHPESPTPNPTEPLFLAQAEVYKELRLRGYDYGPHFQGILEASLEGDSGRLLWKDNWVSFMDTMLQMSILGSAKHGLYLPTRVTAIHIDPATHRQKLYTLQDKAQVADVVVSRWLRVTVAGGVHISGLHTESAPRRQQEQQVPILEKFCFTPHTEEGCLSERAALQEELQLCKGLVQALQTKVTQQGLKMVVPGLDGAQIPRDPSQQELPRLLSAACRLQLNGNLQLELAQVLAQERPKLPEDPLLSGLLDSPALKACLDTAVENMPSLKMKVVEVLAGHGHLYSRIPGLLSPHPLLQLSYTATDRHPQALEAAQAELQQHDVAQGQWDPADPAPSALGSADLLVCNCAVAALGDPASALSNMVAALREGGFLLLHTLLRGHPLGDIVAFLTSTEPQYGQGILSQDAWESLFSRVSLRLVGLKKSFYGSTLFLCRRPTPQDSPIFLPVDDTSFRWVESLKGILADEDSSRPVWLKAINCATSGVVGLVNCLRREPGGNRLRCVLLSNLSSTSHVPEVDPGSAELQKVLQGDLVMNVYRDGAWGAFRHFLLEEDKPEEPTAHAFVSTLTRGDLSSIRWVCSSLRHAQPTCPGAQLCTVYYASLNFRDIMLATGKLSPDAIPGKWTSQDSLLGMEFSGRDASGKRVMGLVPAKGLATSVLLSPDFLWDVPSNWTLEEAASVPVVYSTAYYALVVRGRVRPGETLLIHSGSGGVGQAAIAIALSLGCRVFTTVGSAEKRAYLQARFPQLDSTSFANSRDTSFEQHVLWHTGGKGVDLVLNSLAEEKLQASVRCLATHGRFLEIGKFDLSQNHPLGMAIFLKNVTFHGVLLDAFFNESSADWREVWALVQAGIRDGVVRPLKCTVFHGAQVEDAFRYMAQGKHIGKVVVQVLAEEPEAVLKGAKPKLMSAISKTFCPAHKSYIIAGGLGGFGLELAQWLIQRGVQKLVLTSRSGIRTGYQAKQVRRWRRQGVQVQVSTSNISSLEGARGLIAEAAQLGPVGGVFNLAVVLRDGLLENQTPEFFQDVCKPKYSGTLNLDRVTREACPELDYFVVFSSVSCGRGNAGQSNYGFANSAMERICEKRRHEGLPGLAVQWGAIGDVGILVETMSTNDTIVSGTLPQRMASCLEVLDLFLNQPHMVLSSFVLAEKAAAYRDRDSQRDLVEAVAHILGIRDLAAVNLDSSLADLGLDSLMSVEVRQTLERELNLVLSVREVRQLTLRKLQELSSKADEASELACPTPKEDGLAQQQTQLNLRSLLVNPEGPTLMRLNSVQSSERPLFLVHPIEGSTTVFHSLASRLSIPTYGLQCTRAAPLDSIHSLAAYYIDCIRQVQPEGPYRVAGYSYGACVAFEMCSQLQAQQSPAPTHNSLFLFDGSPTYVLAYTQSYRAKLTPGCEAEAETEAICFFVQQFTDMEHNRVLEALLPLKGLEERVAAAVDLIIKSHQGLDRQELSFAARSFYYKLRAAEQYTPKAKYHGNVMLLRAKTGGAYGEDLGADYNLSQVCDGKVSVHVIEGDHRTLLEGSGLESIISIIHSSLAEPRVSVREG

## Fc1nc(F)c(F)c(NCCCNc2c(F)c(F)nc(F)c2F)c1F
Fatty acid synthase [1]
  IC50: 7.19 µM (active)
[2]
  IC50: > 100 µM (active)
Fatty acid synthase [3]
  IC50: 26 µM (inactive)
[4]
  CC50: 24 µM (active)

## COc1ncccc1-c1nnn(-c2ccc(Cl)c(Cl)c2)n1
Bcl-2-related protein A1 [5]
  IC50: > 100 µM (not active)
Bcl-2-related protein A1 [6]
  IC50: > 100 µM (not active)

## COc1cc([N+](=O)[O-])ccc1N=C(S)Nn1cnnc1
Procathepsin L
  IC50: > 59.6 µM (not active)
Aspartyl aminopeptidase
  IC50: 0.854 µM (active)

## O=C(O)C1CCN(c2nc(-c3ccccc3)c3cc(Br)ccc3n2)CC1
[7]
  IC50: 2.33 µM (active)
[8]
  IC50: > 39.8 µM (not active)

## O=C(NCCCN1CCCC1=O)c1ccc2c(=O)n(Cc3ccco3)c(=S)[nH]c2c1
[9]
  EC50: > 50 µM (not active)

## CCN1CCCC1CNC(=O)C1CCN(Cc2nc(-c3cccc(Br)c3)oc2C)CC1 (stereo not drawn)
[10]
  IC50: 6.51 µM (active)

## CCC12C=C(/C=C/c3ccccc3)C(CC)(C1)C(c1ccccc1)CC2=O (stereo not drawn)
Cytochrome P450 3A4
  AC50: 6.31 µM (inconclusive)
Cytochrome P450 2C9
  AC50: 1.58 µM (inconclusive)

## O=C(O)c1cccnc1Nc1cccc(SC(F)(F)F)c1
Staphylococcus aureus
  IC50: 0.964 µM (active)

## COc1ccnc(Oc2ccc(F)cc2)c1C(=O)N=CNOCc1ccc(F)cc1
[11]
  IC50: 30.3 µM (not active)

## c1nc2cc(Cc3ccc4[nH]cnc4c3)ccc2[nH]1
cells
  IC50: 44.5 µM (active)
[12]
  CC50: > 50 µM (active)
